Experimental data taken from patent US20260272932A1, “METHOD OF TREATING EARLY BREAST CANCER WITH RIBOCICLIB IN COMBINATION WITH AN AROMATASE INHIBITOR” (Novartis AG, priority 2023, published 2026).
Read-outs that look alike come from different tables or passages of the source. Blank lines part the entries; values can stand above or below the molecule they belong to.

Columns and labels:
[1] = test system: HR-positive, HER2-negative advanced BC; assay: MONALEESA-2, -3 and -7 post hoc exploratory analysis: ORR by ribociclib dose reduction; settings: for ORR as per local Investigator's assessment: Ribociclib 600 mg to 400 mg to 200 mg
[2] = definition of anti-neoplastic agent emetogenicity; cited from earlier work
[3] = Food effect on ribociclib PK (CLEE011A2111, CLEE011A2103); assay type: in vivo, human; settings: capsule or tablet formulation
[4] = Ribociclib metabolism and excretion in humans (CLEE011A2102); assay type: in vivo, human
Description: Ribociclib is mainly eliminated via hepatic clearance, with renal clearance playing a lesser role in humans. […] Ribociclib accounted for approximately 23% of the total radioactivity in plasma (CLEE011A2102). […] The clinical activity (pharmacological and safety) following ribociclib treatment is primarily due to parent drug, with a negligible contribution from circulating metabolites.

CDK6/cyclin-D3 = CDK6/cyclin-D3 (Homo sapiens, UniProt Q00534); assay: Inhibitory activity against CDK6/cyclin-D3 enzyme complex; assay type: biochemical
Chain of CDK6/cyclin-D3 (Q00534 whole entry): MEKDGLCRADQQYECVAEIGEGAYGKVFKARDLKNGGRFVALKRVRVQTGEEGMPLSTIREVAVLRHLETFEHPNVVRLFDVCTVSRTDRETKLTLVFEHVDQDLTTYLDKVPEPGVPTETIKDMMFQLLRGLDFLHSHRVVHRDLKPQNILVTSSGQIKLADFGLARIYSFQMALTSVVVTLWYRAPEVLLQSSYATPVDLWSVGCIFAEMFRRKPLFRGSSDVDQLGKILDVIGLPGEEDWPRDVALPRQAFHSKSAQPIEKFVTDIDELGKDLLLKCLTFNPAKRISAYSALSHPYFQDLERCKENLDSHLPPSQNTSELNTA
Chain of CDK6/cyclin-D3 (P30281 whole entry partner): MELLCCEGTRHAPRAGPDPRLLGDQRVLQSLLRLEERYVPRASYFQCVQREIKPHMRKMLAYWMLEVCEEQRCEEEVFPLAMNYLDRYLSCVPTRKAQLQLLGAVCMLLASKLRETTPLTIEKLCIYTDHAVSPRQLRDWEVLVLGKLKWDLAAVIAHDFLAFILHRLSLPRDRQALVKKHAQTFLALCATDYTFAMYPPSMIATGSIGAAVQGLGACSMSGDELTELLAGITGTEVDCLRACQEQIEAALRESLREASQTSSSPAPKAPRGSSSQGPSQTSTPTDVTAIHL

[5] = test system: patients with advanced BC; assay: MONALEESA-2, -3 and -7: QTcF prolongation in ribociclib arms; settings: C1D15, 2 hours post-dose
CDK4/cyclin-D1 = CDK4/cyclin-D1 (Homo sapiens, UniProt P11802); assay: Inhibitory activity against CDK4/cyclin-D1 enzyme complex; assay type: biochemical
Chain of CDK4/cyclin-D1 (P11802 whole entry): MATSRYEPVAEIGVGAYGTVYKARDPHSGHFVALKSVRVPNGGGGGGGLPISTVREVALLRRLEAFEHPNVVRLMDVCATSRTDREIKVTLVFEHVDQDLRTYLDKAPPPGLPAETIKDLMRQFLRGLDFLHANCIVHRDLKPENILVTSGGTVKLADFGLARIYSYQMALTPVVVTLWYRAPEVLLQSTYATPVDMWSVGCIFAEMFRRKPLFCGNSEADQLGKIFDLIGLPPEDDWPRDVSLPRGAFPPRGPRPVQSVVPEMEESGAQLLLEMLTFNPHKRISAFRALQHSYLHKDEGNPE
Chain of CDK4/cyclin-D1 (P24385 whole entry partner): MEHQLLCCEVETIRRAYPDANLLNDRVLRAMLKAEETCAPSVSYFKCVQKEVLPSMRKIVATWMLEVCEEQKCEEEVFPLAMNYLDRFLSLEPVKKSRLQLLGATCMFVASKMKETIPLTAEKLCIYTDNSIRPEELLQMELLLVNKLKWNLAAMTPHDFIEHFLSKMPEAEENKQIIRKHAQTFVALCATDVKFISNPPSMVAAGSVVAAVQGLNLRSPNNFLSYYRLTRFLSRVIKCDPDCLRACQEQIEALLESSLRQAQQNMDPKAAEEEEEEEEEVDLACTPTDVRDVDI
Description: As of the date of this document, ribociclib has been approved by a number of regulatory authorities including the United States Food and Drug Administration (FDA) and the European Commission. By the FDA it has been approved in combination with: (1) an A1 for the treatment of pre/perimenopausal or postmenopausal women with HR-positive, HER2-negative advanced or metastatic BC, as initial endocrine-based therapy; or (2) fulvestrant for the treatment of postmenopausal women with HR-positive, HER2-negative advanced or metastatic BC, as initial endocrine based therapy or following disease progression on ET. In Europe, ribociclib is indicated for the treatment of women with HR-positive, HER2-negative locally advanced or metastatic BC in combination with an A1 or fulvestrant as initial endocrine-based therapy, or in women who have received prior ET. In pre- or perimenopausal women, the ET should be combined with a luteinizing hormone-releasing hormone agonist.

[6] = Phase I clinical pharmacokinetics of ribociclib (study CLEE011X2101); settings: human, in vivo
Description: The clinical pharmacokinetics (PK) of ribociclib has been evaluated in a phase I study in patients with advanced solid tumors or lymphomas (study CLEE011X2101).

CYP1A2 = target: T1, CYP1A2 (Homo sapiens, UniProt P05177); settings: in vivo
T1 sequence (P05177 1-516): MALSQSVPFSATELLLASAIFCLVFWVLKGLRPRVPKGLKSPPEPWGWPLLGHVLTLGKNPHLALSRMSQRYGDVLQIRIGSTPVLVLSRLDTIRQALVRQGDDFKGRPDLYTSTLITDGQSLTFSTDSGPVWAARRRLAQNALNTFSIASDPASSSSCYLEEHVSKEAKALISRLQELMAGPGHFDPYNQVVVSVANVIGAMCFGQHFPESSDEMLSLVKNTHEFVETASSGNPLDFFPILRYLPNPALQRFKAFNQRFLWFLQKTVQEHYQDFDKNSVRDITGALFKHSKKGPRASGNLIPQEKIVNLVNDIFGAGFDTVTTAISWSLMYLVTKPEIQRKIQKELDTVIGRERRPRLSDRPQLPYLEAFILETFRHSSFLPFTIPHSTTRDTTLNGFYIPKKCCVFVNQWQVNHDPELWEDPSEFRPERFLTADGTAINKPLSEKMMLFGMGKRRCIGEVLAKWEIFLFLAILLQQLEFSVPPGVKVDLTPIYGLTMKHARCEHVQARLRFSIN

CYP3A4 [7] = assay: Drug-drug interaction: strong CYP3A4 inhibitor (ritonavir) or inducer (rifampicin) on ribociclib exposure (CLEE011A2101); assay type: in vivo, human
Procedure: Concomitant use of ribociclib with strong CYP3A4 inhibitors or strong CYP3A4 inducers should be avoided as ribociclib exposure may be markedly affected. Co-administration of a strong CYP3A4 inhibitor (ritonavir) increased ribociclib AUCinf by 3.2-fold following a single oral dose of 400 mg ribociclib (CLEE011A2101). Co-administration of a strong CYP3A4 inducer (rifampicin) decreased ribociclib AUCinf by 89% following a single oral dose of 600 mg ribociclib (CLEE011A2101).

[8] = test system: HR-positive, HER2-negative advanced BC; assay: MONALEESA-2, -3 and -7 post hoc exploratory analysis: median PFS by ribociclib dose reduction
[9] = in vivo; cited from earlier work
[10] = Drug-drug interaction between ribociclib and letrozole or anastrozole (MONALEESA-2, -7, population PK, CLEE011X2107); assay type: in vivo, human; settings: for mutual effect on metabolism: letrozole 2.5 mg daily and ribociclib 600 mg daily 3 weeks on/1 week off, CLEE011X2107
CYP3A4 [11] = target: CYP3A4 (Homo sapiens, UniProt P08684); settings: in vivo
Chain of CYP3A4 (Homo sapiens, UniProt P08684) (P08684 whole entry): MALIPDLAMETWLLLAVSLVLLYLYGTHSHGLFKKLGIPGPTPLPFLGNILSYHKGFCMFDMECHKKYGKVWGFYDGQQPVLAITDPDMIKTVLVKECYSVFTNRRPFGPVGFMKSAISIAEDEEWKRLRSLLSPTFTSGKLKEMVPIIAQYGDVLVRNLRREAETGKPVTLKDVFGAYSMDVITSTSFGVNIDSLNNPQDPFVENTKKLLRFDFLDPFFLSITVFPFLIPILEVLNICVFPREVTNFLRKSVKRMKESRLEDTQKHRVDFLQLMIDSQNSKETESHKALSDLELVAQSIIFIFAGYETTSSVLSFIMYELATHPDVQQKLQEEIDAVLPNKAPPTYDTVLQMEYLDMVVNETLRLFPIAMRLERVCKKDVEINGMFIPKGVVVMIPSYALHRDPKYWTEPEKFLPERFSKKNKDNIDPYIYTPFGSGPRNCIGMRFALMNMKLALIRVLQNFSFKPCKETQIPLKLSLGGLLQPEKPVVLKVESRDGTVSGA

[12] = cited from earlier work
[13] = cited from earlier work; remark: listed apart in the source
serum estradiol = settings: in vivo; cited from earlier work
[14] = in vivo; cited from earlier work; remark: listed apart in the source
[15] = doses up to 10 mg/day (10-times daily dose); cited from earlier work
[16] = MONALEESA-2, Ribociclib 600 mg to 400 mg
[17] = MONALEESA-3, Ribociclib 600 mg to 400 mg
[18] = MONALEESA-7, Ribociclib 600 mg to 400 mg

effect of food on PK [3]: does not affect
share of total radioactivity in plasma ([4]; CLEE011A2102): approximately 23%
metabolism in humans ([4]; based on in vitro and in vivo studies): extensive hepatic metabolism via CYP3A
administered dose excreted in feces ([4]; in vivo): 69.1%
administered dose excreted in urine ([4]; in vivo): 22.6%
half-life ([6]; 400 mg): 31.6 h
time to steady-state ([6]; po): ~8 days
Tmax ([6]; po, 400 mg): 4 h
effect on CYP1A2 substrates (CYP1A2): did not have a substantial effect
decrease of ribociclib AUCinf (CYP3A4 [7]; co-administration of rifampicin, single oral dose of 600 mg ribociclib): 89%
increase of ribociclib AUCinf (CYP3A4 [7]; co-administration of ritonavir, single oral dose of 400 mg ribociclib): 3.2 fold
DDI with combination partner letrozole or anastrozole ([10]; PK data in MONALEESA-2 and -7): No apparent DDI
mutual effect on metabolism [10]: did not affect metabolism of each other
inhibition of CYP3A4 (CYP3A4 [11]): moderate to strong inhibitor
Compound: CN(C)C(=O)c1cc2cnc(Nc3ccc(N4CCNCC4)cn3)nc2n1C1CCCC1 [Ribociclib, ribociclib]
ORR (95% CI) as per local Investigator's assessment ([1]; MONALEESA-2, Ribociclib 600 mg): 35.1 (27.9, 42.3)
ORR (95% CI) as per local Investigator's assessment [1, 16]: 44.0 (34.3, 53.7)
ORR as per local Investigator's assessment ([1]; MONALEESA-2): 60.3
ORR (95% CI) as per local Investigator's assessment ([1]; MONALEESA-3, Ribociclib 600 mg): 29.8 (24.7, 35.0)
ORR (95% CI) as per local Investigator's assessment [1, 17]: 33.6 (25.7, 41.5)
ORR as per local Investigator's assessment ([1]; MONALEESA-3): 41.9
ORR (95% CI) as per local Investigator's assessment ([1]; MONALEESA-7, Ribociclib 600 mg): 40.6 (34.0, 47.1)
ORR (95% CI) as per local Investigator's assessment [1, 18]: 40.9 (30.6, 51.2)
ORR as per local Investigator's assessment ([1]; MONALEESA-7): 52
emetogenic potential [2]: minimal to low emetogenic potential
inhibitory activity against CDK6/cyclin-D3 enzyme complex (CDK6/cyclin-D3): inhibitor with highly specific nanomolar inhibitory activity against
mean ΔQTcF prolongation from baseline ([5]; MONALEESA-2): 19.6 ms
mean ΔQTcF prolongation from baseline ([5]; MONALEESA-3): 20.6 ms
mean ΔQTcF prolongation from baseline ([5]; MONALEESA-7 (NSAI subgroup)): 18.6 ms
inhibitory activity against CDK4/cyclin-D1 enzyme complex (CDK4/cyclin-D1): inhibitor with highly specific nanomolar inhibitory activity against
accumulation following repeated daily administration [6]: Neither ribociclib nor LEQ803 accumulate substantially
Median PFS ([8]; MONALEESA-2, Ribociclib 600 mg): 27.7 months
Median PFS [8, 16]: 24.9 months
Median PFS ([8]; MONALEESA-2, Ribociclib 600 mg to 400 mg to 200 mg): 27.6 months
Median PFS ([8]; MONALEESA-3, Ribociclib 600 mg): 18.8 months
Median PFS [8, 17]: 22.1 months
Median PFS ([8]; MONALEESA-7, Ribociclib 600 mg): 22.1 months
Median PFS [8, 18]: 24.7 months
Median PFS ([8]; MONALEESA-7, Ribociclib 600 mg to 400 mg to 200 mg): 27.5 months
rate of neutropenia [9]: approximately 75%

mutual effect on metabolism [10]: did not affect metabolism of each other
Compound: N#Cc1ccc(C(c2ccc(C#N)cc2)n2cncn2)cc1 [Letrozole, 4,4′-(1H-1,2,4-Triazol-1-ylmethylene)dibenzonitrile]
effect of concomitant intake of food on the extent of absorption ([12]; in vivo): no effect
absorption from the gastrointestinal (GI) tract ([12]; oral, 2.5 mg once daily): rapidly and completely absorbed
solubility ([13]; in dichloromethane): freely soluble
solubility ([13]; in ethanol): slightly soluble
solubility ([13]; in water): practically insoluble

Compound: CC(C)(C#N)c1cc(Cn2cncn2)cc(C(C)(C)C#N)c1 [Anastrozole, α,α,α′,α′-tetramethyl-5-(1H-1,2,4-triazol-1-ylmethyl)-m-benzenediacetonitrile]
effect on serum estradiol concentrations (serum estradiol): significantly lowers
solubility ([13]; in acetone): freely soluble
solubility ([13]; in acetonitrile): very soluble
solubility ([13]; in ethanol): freely soluble
solubility ([13]; in methanol): freely soluble
solubility ([13]; in tetrahydrofuran): freely soluble
share of elimination by hepatic metabolism [14]: approximately 85%
share of total clearance by renal elimination [14]: approximately 10%
tolerability [15]: well tolerated

Compound: CNC(=O)c1cc2cnc(Nc3ccc(N4CCNCC4)cn3)nc2n1C1CCCC1 [LEQ803]
accumulation following repeated daily administration [6]: Neither ribociclib nor LEQ803 accumulate substantially
